Tests used:
Assay in all cases: KINOMEscan competition binding
Settings in all cases: compound 10.0 µM
[1] = target: BMP2K (human) (UniProt Q9NSY1)
[2] = target: BRSK2 (human) (UniProt Q8IWQ3)
[3] = target: CLK1 (human) (UniProt P49759)
[4] = target: CLK4 (human) (UniProt Q9HAZ1)
[5] = target: CSNK2A2 (human) (UniProt P19784)
[6] = target: DAPK3 (human) (UniProt O43293)
[7] = target: DYRK1B (human) (UniProt Q9Y463)
[8] = system: EGFR (human), P00533 [747-751 del / S ins]
[9] = target: GAK (human) (UniProt O14976)
[10] = target: MAP2K3 (human) (UniProt P46734)
[11] = target: PIM2 (human) (UniProt Q9P1W9)
[12] = target: PIM3 (human) (UniProt Q86V86)
[13] = target: PIP5K1A (human) (UniProt Q99755)
[14] = target: PLK4 (human) (UniProt O00444)
PLK4 (human), sequence (O00444 whole entry, looked up): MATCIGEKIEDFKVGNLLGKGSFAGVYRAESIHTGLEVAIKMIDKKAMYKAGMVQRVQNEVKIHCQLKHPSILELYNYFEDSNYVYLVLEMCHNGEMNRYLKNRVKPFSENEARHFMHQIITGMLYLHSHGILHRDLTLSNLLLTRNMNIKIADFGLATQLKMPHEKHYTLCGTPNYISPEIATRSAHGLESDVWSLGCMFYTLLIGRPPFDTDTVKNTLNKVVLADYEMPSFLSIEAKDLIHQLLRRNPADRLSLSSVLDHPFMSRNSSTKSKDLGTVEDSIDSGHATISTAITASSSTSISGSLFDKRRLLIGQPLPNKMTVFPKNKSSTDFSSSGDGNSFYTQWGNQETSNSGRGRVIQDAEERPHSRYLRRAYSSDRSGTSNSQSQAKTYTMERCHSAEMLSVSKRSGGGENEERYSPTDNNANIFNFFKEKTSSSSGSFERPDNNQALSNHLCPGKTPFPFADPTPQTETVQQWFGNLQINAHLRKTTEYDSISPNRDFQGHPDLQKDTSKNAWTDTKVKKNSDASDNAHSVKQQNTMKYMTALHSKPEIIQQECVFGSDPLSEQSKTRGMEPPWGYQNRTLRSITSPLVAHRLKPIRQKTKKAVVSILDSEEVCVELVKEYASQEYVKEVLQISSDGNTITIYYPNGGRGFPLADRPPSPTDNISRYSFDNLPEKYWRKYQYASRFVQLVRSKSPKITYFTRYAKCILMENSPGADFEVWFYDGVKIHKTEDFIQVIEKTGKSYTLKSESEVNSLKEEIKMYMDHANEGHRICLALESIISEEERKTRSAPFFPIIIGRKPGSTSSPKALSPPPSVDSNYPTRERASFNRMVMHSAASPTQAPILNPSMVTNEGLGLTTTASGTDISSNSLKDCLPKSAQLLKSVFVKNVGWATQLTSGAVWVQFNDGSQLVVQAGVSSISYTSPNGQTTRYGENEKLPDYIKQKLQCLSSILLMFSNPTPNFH

[15] = target: PRKD1 (human) (UniProt Q15139)
[16] = target: PRKD3 (human) (UniProt O94806)
[17] = target: RPS6KA4 KD2 (human) (UniProt O75676)
[18] = target: STK17B (human) (UniProt O94768)
[19] = target: TAOK1 (human) (UniProt Q7L7X3)
TAOK1 (human), sequence (Q7L7X3 whole entry, looked up): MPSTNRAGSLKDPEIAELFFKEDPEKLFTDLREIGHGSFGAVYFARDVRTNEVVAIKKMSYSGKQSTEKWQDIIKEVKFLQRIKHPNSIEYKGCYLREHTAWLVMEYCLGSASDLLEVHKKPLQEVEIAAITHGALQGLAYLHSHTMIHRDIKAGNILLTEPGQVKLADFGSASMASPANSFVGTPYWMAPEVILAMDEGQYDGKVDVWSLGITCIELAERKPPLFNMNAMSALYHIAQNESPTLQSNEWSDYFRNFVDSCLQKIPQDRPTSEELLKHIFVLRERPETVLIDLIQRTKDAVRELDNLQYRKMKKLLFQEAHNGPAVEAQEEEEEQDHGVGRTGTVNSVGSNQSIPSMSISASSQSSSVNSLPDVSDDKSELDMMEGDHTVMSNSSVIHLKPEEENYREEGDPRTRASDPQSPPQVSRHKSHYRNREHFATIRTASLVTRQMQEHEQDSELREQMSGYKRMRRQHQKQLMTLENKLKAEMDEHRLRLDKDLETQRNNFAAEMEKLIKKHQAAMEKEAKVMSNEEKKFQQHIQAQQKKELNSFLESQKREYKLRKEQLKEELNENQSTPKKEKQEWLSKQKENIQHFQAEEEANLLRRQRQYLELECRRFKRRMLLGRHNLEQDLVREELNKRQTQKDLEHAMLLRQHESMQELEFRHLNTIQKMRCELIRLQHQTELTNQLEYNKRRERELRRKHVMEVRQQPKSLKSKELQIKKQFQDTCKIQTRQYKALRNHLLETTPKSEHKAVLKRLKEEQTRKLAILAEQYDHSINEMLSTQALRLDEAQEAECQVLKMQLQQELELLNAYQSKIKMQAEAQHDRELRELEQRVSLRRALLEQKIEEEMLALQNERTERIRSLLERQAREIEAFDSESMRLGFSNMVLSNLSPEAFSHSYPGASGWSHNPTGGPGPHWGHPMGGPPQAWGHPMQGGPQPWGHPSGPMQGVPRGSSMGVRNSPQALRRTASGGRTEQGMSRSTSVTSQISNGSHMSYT

[20] = target: ULK2 (human) (UniProt Q8IYT8)
[21] = system: FLT3 (human), P36888 [D835Y]
[22] = system: KIT (human), P10721 [V559D/V654A]
[23] = target: MAPK8 (human) (UniProt P45983)
[24] = target: MKNK2 (human) (UniProt Q9HBH9)
[25] = target: RPS6KA2 KD2 (human) (UniProt Q15349)
[26] = target: RPS6KA6 KD2 (human) (UniProt Q9UK32)
[27] = target: TLK1 (human) (UniProt Q9UKI8)
[28] = target: TYK2 JH2 pseudokinase (human) (UniProt P29597)
TYK2 JH2 pseudokinase (human), sequence (P29597 whole entry, looked up): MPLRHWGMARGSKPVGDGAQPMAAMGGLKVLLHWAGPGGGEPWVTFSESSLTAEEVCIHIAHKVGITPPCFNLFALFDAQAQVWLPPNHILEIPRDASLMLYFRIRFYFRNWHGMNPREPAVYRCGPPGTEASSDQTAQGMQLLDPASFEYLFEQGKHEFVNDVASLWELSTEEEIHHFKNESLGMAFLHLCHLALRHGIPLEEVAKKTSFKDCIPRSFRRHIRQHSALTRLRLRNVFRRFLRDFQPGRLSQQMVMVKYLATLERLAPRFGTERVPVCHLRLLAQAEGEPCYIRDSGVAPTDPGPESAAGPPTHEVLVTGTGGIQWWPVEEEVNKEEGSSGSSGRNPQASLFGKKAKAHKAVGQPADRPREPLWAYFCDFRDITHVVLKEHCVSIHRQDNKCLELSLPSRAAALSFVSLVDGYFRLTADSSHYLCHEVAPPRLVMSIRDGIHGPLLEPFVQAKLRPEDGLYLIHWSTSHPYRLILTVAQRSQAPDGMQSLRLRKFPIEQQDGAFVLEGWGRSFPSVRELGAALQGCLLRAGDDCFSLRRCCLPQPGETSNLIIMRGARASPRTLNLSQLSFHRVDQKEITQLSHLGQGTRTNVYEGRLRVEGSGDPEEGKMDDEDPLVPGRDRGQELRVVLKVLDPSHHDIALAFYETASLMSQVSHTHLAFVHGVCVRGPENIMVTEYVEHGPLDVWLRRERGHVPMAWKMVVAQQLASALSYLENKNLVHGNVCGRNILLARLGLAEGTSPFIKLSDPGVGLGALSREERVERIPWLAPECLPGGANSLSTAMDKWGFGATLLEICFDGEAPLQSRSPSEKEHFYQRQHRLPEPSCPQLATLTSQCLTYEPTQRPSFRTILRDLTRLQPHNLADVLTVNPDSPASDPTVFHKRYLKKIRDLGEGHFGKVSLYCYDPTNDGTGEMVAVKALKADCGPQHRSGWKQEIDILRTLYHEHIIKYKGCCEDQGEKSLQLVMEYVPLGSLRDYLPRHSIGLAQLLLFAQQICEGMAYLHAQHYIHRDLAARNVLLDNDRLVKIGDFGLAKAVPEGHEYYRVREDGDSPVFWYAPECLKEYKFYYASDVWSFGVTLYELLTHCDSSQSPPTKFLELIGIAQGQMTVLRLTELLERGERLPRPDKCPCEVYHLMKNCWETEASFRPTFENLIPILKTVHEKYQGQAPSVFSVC

[29] = system: KIT (human), P10721 [D816V]
[30] = system: KIT (human), P10721 [V559D/T670I]
[31] = target: MAP4K2 (human) (UniProt Q12851)
[32] = target: RIPK2 (human) (UniProt O43353)
[33] = target: TNIK (human) (UniProt Q9UKE5)
[34] = target: TTK (human) (UniProt P33981)
[35] = target: MELK (human) (UniProt Q14680)
[36] = target: PIK3CG (human) (UniProt P48736)
[37] = target: AURKB (human) (UniProt Q96GD4)
[38] = target: CIT (human) (UniProt O14578)
[39] = system: FLT3 (human), P36888 [ITD]
[40] = target: MAP3K7 (human) (UniProt O43318)
[41] = target: STK11 (human) (UniProt Q15831)

EGFR (human), P00533 [747-751 del / S ins], sequence (P00533 whole entry, looked up, stated change not applied): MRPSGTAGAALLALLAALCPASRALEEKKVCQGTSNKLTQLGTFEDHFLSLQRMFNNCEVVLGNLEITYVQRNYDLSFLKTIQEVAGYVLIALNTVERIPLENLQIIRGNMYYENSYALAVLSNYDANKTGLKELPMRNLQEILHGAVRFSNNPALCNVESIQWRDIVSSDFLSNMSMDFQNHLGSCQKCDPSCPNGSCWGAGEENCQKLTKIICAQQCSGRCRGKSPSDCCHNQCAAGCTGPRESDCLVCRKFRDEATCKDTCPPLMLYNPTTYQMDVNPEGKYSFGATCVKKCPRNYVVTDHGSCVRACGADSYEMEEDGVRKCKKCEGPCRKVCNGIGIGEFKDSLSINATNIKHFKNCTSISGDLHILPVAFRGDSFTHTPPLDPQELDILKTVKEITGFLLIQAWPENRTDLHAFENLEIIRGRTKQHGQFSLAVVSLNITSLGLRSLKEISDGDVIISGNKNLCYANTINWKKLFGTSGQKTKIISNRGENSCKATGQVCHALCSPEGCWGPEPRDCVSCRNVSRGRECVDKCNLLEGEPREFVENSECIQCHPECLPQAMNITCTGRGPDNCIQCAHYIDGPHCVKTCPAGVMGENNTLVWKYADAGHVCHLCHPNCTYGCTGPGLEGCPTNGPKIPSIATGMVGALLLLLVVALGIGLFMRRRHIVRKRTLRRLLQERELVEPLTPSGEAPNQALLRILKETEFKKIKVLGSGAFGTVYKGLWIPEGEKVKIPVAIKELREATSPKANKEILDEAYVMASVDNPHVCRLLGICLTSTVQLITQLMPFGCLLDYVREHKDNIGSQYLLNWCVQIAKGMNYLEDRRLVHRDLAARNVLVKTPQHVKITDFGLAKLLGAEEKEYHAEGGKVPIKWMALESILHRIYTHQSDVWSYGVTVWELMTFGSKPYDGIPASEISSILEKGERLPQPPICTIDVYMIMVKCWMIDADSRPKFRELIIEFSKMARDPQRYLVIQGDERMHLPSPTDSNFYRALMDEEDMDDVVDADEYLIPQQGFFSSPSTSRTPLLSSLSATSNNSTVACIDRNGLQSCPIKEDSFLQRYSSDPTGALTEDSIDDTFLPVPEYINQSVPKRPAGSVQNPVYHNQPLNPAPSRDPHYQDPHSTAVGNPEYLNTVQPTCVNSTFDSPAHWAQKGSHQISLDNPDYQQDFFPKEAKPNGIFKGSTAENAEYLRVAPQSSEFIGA
BRSK2 (human), sequence (Q8IWQ3 whole entry, looked up): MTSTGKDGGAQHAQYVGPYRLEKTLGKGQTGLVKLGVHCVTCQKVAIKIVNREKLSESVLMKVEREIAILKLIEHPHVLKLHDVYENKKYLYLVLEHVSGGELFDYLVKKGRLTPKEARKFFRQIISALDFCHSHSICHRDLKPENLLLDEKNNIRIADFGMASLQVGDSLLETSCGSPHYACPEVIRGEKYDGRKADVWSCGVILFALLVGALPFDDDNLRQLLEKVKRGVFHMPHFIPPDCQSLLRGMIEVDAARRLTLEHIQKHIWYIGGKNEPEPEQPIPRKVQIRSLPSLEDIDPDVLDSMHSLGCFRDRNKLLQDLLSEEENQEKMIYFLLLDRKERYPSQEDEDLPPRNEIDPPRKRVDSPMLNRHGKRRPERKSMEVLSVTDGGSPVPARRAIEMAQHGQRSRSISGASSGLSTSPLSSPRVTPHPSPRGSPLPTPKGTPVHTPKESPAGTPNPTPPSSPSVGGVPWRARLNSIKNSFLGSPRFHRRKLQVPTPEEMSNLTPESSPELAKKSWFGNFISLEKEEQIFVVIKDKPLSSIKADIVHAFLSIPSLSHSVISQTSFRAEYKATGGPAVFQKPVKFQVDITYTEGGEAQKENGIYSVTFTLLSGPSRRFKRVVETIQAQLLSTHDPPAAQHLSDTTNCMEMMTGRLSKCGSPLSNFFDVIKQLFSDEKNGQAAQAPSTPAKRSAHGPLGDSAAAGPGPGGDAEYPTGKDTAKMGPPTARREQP

| Compound | kinase still bound, per cent of control [1] [%] | kinase still bound, per cent of control [2] [%] | kinase still bound, per cent of control [3] [%] | kinase still bound, per cent of control [4] [%] | kinase still bound, per cent of control [5] [%] | kinase still bound, per cent of control [6] [%] | kinase still bound, per cent of control [7] [%] | kinase still bound, per cent of control [9] [%] | kinase still bound, per cent of control [10] [%] | kinase still bound, per cent of control [11] [%] | kinase still bound, per cent of control [12] [%] | kinase still bound, per cent of control [14] [%] | kinase still bound, per cent of control [15] [%] | kinase still bound, per cent of control [17] [%] | kinase still bound, per cent of control [18] [%] | kinase still bound, per cent of control [19] [%] | kinase still bound, per cent of control [20] [%] | kinase still bound, per cent of control [21] [%] | kinase still bound, per cent of control [32] [%] | kinase still bound, per cent of control [36] [%] | further results |
| --- | --- | --- | --- | --- | --- | --- | --- | --- | --- | --- | --- | --- | --- | --- | --- | --- | --- | --- | --- | --- | --- |
| N=C1NC(=O)/C(=C/c2ccc(-c3csc4ccccc34)o2)S1 | – | 18 | 20 | 25 | 11 | 29 | 25 | – | 20 | 0.3 | 5.4 | 5.2 | – | – | 0.4 | 18 | – | 19 | – | – | kinase still bound, per cent of control [22]: 24%; kinase still bound, per cent of control [23]: 34%; kinase still bound, per cent of control [24]: 34%; kinase still bound, per cent of control [13]: 30%; kinase still bound, per cent of control [25]: 21%; kinase still bound, per cent of control [26]: 18%; kinase still bound, per cent of control [27]: 11%; kinase still bound, per cent of control [28]: 8.5% |
| CS(=O)(=O)Nc1ccc(-c2ncc(/C=C3\SC(=N)NC3=O)s2)cc1 | 29 | 28 | – | – | – | 6.9 | 3.1 | 2.8 | – | 4.3 | 2 | 11 | – | 1.2 | 24 | – | 24 | 12 | 6.6 | – | kinase still bound, per cent of control [29]: 4.4%; kinase still bound, per cent of control [30]: 32%; kinase still bound, per cent of control [31]: 29%; kinase still bound, per cent of control [24]: 13%; kinase still bound, per cent of control [33]: 16%; kinase still bound, per cent of control [34]: 19% |
| N=C1NC(=O)/C(=C/c2c[nH]c(=O)c(-c3ccc(N4CCNCC4)nc3)c2)S1 | 6.3 | – | 3.5 | 16 | 32 | 4.7 | 1 | 30 | – | 1.8 | 8 | – | 7 | 0.1 | 1.7 | 32 | 4.8 | 23 | 27 | 33 | kinase still bound, per cent of control [31]: 32%; kinase still bound, per cent of control [35]: 27%; kinase still bound, per cent of control [13]: 14%; kinase still bound, per cent of control [25]: 33%; kinase still bound, per cent of control [33]: 18% |
| CS(=O)(=O)Nc1ccc(-c2cncc(/C=C3\SC(=N)NC3=O)c2)cc1 | 22 | 28 | – | – | – | 25 | 17 | – | 16 | – | – | 5.6 | 22 | – | 5.4 | 1.4 | 29 | 3.8 | 1.4 | 32 | kinase still bound, per cent of control [37]: 24%; kinase still bound, per cent of control [38]: 0.8%; kinase still bound, per cent of control [8]: 24%; kinase still bound, per cent of control [39]: 25%; kinase still bound, per cent of control [29]: 2.2%; kinase still bound, per cent of control [30]: 31%; kinase still bound, per cent of control [40]: 3.4%; kinase still bound, per cent of control [31]: 5.8%; kinase still bound, per cent of control [24]: 24%; kinase still bound, per cent of control [16]: 24%; kinase still bound, per cent of control [41]: 17%; kinase still bound, per cent of control [27]: 26%; kinase still bound, per cent of control [33]: 19% |

Second part, led by results:

| kinase still bound, per cent of control [1] [%] | kinase still bound, per cent of control [2] [%] | kinase still bound, per cent of control [3] [%] | kinase still bound, per cent of control [4] [%] | kinase still bound, per cent of control [5] [%] | kinase still bound, per cent of control [6] [%] | kinase still bound, per cent of control [7] [%] | kinase still bound, per cent of control [9] [%] | kinase still bound, per cent of control [10] [%] | kinase still bound, per cent of control [11] [%] | kinase still bound, per cent of control [12] [%] | kinase still bound, per cent of control [14] [%] | kinase still bound, per cent of control [15] [%] | kinase still bound, per cent of control [17] [%] | kinase still bound, per cent of control [18] [%] | kinase still bound, per cent of control [19] [%] | kinase still bound, per cent of control [20] [%] | kinase still bound, per cent of control [21] [%] | kinase still bound, per cent of control [32] [%] | kinase still bound, per cent of control [36] [%] | Compound | further results |
| --- | --- | --- | --- | --- | --- | --- | --- | --- | --- | --- | --- | --- | --- | --- | --- | --- | --- | --- | --- | --- | --- |
| 14 | 29 | 3.4 | 5.2 | 17 | 7.4 | 1.8 | 7.6 | 3.4 | 1.4 | 2.1 | 3.2 | 26 | 2.2 | 2 | 0 | 12 | – | – | – | N=C1NC(=O)/C(=C/c2ccc(-c3ccccc3O)o2)S1 | kinase still bound, per cent of control [8]: 31%; kinase still bound, per cent of control [13]: 11%; kinase still bound, per cent of control [16]: 28% |
| – | 17 | 0.55 | 6.4 | 6.7 | 25 | 5.6 | 6.6 | – | 0.8 | 5.4 | 8.8 | – | 0.75 | 1.5 | 2.2 | – | – | – | 2.6 | N=C1NC(=O)/C(=C/c2ccc(-c3ccc(C(N)=O)cc3O)o2)S1 | kinase still bound, per cent of control [38]: 19%; kinase still bound, per cent of control [34]: 34%; kinase still bound, per cent of control [28]: 0.25% |
| – | 23 | 1.3 | 2.1 | 15 | 8.6 | 3.6 | 7.6 | 3.2 | 1.4 | 4.7 | 4.6 | 32 | 1.8 | 2.9 | 0 | 14 | – | 34 | 0 | N=C1NC(=O)/C(=C/c2ccc(-c3ccc(F)cc3O)o2)S1 | kinase still bound, per cent of control [38]: 33%; kinase still bound, per cent of control [8]: 16%; kinase still bound, per cent of control [28]: 31% |
